Where two headings read alike, the source gives them in different places.
Columns and labels:
[1] = 10 MHz, 37° C
Experimental: The relations of protons present in water and plasma exposed to the chelate product of Example 7 was tested by NMR for relaxities, in msec, at 10 MHz, 37° C.

selected body organs = settings: for T1: 0.01 mmol/kg i.v.
Experimental: Each of seven rabbits was injected intravenously with 0.01 mmol/kg of the solution obtained in Example 7. The rabbits were sacrificed at 0.25, 0.50, 1.0, 2.0, 4, 6 and 24 hours post-injection, and the proton relation values of selected body organs were measured with NMR, in vitro, at 10 MHz.

[2] = Experimental: The compound DPDP was studied potentiometrically from pH 11.2 to 2.0. Data sets were collected on a custom-built automatic potentiometric titration apparatus composed of a METROHM 655 DOSIMAT automatic buret, a FISHER ACCUMET pH meter with a CORNING calomel combination electrode, a custom-blown water jacketed titration cell, a BRINKMAN LAUDA K-2/R constant temperature bath and a COMMODORE 64 computer. […] Data analysis was performed on an IBM-AT computer using the least squares program, BETA (Harris, W. et al, supra), and the data analysis program, HANDNBAR (Harris, W. et al, supra). The titrants were standardized by phenophthalein titration as follows: KOH was calibrated against potassium hydrogen phthalate (a primary standard), and HCl solutions were calibrated against the KOH standard. […] All solutions were made from distilled, deionized water that was further purified on a MILLI-Q cartridge system, degassed, and then kept under an atmosphere of argon which had been scrubbed for CO2 and O2. Additions of EDTA and Mn(II) solutions were performed using calibrated GILMOT pipets.
The metal complex titration was performed by adding 152.2 mg (0.2383 mmoles) to 74.6 ml of a high pH aqueous solution.

## Cc1ncc(COP(=O)(O)O)c(CN(CCN(CC(=O)[O-])Cc2c(COP(=O)(O)O)cnc(C)c2O)CC(=O)[O-])c1O.[Mn+2] [Mn(DPDP), sodium-calcium salt of a manganese chelate complex of N,N,-bis-(pyridoxal-5-phosphate)ethylenediamine-N,N'-diacetic acid or N,N'-bis(3-hydroxy-2-methyl-5-phosphonomethyl-4-pyridylmethyl)ethylenediamine-N,N'-diacetic acid]
[1]; 0.000039 molar
  T1 (Plasma): 1103 ms
[1]; 0.000078 molar
  T1 (Plasma): 995 ms
[1]; 0.000156 molar
  T1 (Plasma): 856 ms
  T1 (Water): 1470 ms
[1]; 0.000312 molar
  T1 (Plasma): 624 ms
  T1 (Water): 1083 ms
[1]; 0.000625 molar
  T1 (Plasma): 398 ms
  T1 (Water): 639 ms
[1]; 0.00125 molar
  T1 (Plasma): 240 ms
  T1 (Water): 332 ms
[1]; 0.0025 molar
  T1 (Plasma): 139 ms
  T1 (Water): 175 ms
  T2 (Plasma): 124 ms
[1]; 0.005 molar
  T1 (Plasma): 74 ms
  T1 (Water): 100 ms
  T2 (Plasma): 68 ms
  T2 (Water): 86 ms
[1]; 0.010 molar
  T1 (Plasma): 40 ms
  T1 (Water): 43 ms
  T2 (Plasma): 34 ms
  T2 (Water): 41 ms
Selected body organs; Bile, 0.25 hr
  T1: 160 ms
Selected body organs; Bile, 0.50 hr
  T1: 46 ms
Selected body organs; Bile, 1.0 hr
  T1: 25 ms
Selected body organs; Bile, 2 hr
  T1: 21 ms
Selected body organs; Bile, 4 hr
  T1: < 1 ms
Selected body organs; Bile, 6 hr
  T1: 14 ms
Selected body organs; Bile, 24 hr
  T1: 107 ms
Selected body organs; Heart, 0.25 hr
  T1: 231 ms
Selected body organs; Heart, 0.50 hr
  T1: 352 ms
Selected body organs; Heart, 1.0 hr
  T1: 381 ms
Selected body organs; Heart, 2 hr
  T1: 507 ms
Selected body organs; Heart, 4 hr
  T1: 522 ms
Selected body organs; Heart, 6 hr
  T1: 663 ms
Selected body organs; Heart, 24 hr
  T1: 660 ms
Selected body organs; Liver, 0.25 hr
  T1: 68 ms
Selected body organs; Liver, 0.50 hr
  T1: 76 ms
Selected body organs; Liver, 1.0 hr
  T1: 48 ms
Selected body organs; Liver, 2 hr
  T1: 48 ms
Selected body organs; Liver, 4 hr
  T1: 145 ms
Selected body organs; Liver, 6 hr
  T1: 209 ms
Selected body organs; Liver, 24 hr
  T1: 315 ms
Selected body organs; Renal cortex, 0.25 hr
  T1: 202 ms
Selected body organs; Renal cortex, 0.50 hr
  T1: 191 ms
Selected body organs; Renal cortex, 1.0 hr
  T1: 229 ms
Selected body organs; Renal cortex, 2 hr
  T1: 192 ms
Selected body organs; Renal cortex, 4 hr
  T1: 210 ms
Selected body organs; Renal cortex, 6 hr
  T1: 239 ms
Selected body organs; Renal cortex, 24 hr
  T1: 328 ms
Selected body organs; Renal medulla, 0.25 hr
  T1: 192 ms
Selected body organs; Renal medulla, 0.50 hr
  T1: 231 ms
Selected body organs; Renal medulla, 1.0 hr
  T1: 236 ms
Selected body organs; Renal medulla, 2 hr
  T1: 310 ms
Selected body organs; Renal medulla, 4 hr
  T1: 340 ms
Selected body organs; Renal medulla, 6 hr
  T1: 375 ms
Selected body organs; Renal medulla, 24 hr
  T1: 563 ms
Selected body organs; rabbit, i.v.
  clearance through both the renal and hepatobiliary systems, time post-injection: 6 to 8 h
  uptake and clearance in the liver, renal cortex, renal medulla and heart: rapid uptake and clearance
[2]; Mn(II) chelate, potentiometric, pH 11.1 to 2.0
  log Kf (formation constant): 14.8
[2]; physiological pH, Mn stabilized at the +2 valence
  binding of Mn(II) ion to the chelating agent at physiological pH: quantitatively bound
[2]; titration data
  pH below which the complex begins to demetallate: below 4.5
